From PMC11053447, “Human ABC and SLC Transporters: The Culprit Responsible for Unspecific PSMA-617 Uptake?” (Pharmaceuticals, 2024)

Target: T1, human PEPT2 (Homo sapiens, UniProt Q16348)
T1 sequence (Q16348 1-729): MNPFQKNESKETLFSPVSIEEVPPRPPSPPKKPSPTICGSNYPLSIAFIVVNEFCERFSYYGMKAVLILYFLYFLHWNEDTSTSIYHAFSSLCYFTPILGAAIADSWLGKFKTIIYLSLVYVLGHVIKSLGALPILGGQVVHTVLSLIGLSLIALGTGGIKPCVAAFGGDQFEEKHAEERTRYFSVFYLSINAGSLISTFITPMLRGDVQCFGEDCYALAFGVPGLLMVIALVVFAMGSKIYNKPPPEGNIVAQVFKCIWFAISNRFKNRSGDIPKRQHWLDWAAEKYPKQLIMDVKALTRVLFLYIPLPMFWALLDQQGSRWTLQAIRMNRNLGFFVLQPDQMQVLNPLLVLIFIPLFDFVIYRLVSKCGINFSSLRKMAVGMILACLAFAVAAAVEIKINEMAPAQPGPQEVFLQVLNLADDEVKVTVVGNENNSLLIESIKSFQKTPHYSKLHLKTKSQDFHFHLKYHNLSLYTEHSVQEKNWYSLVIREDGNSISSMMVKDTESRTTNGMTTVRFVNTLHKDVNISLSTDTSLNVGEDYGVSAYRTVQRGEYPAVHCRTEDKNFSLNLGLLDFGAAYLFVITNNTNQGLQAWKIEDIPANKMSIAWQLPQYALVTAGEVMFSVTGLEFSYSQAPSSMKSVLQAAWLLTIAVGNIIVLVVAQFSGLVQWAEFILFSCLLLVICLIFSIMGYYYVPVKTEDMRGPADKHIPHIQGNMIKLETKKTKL
Test: SLC transporter substrate assay, CHO-K1-PEPT2 vs control CHO-K1 cells
Settings: 20 min; for Max. transporter-specific fold accumulation, without inhibitor / Max. transporter-specific fold accumulation, with inhibitor: 0.3 µM; for Max. transporter-specific fold accumulation, with inhibitor: Cefadroxil
Description: The described cells were plated onto standard 24-well tissue culture plates at densities of 5 × 10^5 cells/well. […] Before starting the experiment, the cells were prepared by removing the medium and washing the cells twice with 300 µL of assay buffer. […] The cells were lysed by adding 300 µL of 0.1N NaOH, they were incubated for 10 min at 37 °C and 100 µL samples were taken from all the wells.
The amount of protein in each well was quantified using the BCA kit for protein determination (Sigma-Aldrich, St Louis, MO, USA). Positive controls were performed using a separate 96-well plate format according to Table S8 in SI4.
SI4. Results of transporter substrate assays (SLC)
Table S8: Parameters of positive controls, control cell lines and plating for SLC transporters assays.
KH: Krebs-Henseleit buffer, HBSS: Hank's balanced salt solution, MES: 2 -(N-morpholino) ethanesulfonic acid, cGMP:
Guanosine cyclic phosphate, E3S: Estrone -3-sulfate, Gly-Sar: Glycylsarcosine, MPP+: 1-methyl-4-phenylpyridinium.
Calculation of fold accumulation values for SLC transporter substrate assays The fold accumulation value was defined as the ratio of uptake of the test substance (TS) or probe substrate into transfected and control cells. If the fold accumulation is > 2 and can be inhibited by a known inhibitor of the transporter, the test substance can be considered as a substrate of the respective transporter.
Fold accumulation = UPTTRP
• UPTTRP: accumulated amount of test substance (TS) or probe substrate in transfected cells normalized by protein content […]
• UPTCTRL: accumulated amount of test substance (TS) or probe substrate in control cells normalized by protein content […]
Positive control conducted at pH 5.0.
Gly-Sar: Glycylsarcosine.

[1] = pH 5.0, 0.03 µM nominal + Cefadroxil 200 µM
[2] = pH 5.0, 0.03 µM nominal, no inhibitor
[3] = pH 5.0, 0.30 µM nominal + Cefadroxil 200 µM
[4] = pH 5.0, 0.30 µM nominal, no inhibitor
[5] = pH 6.0, 0.03 µM nominal + Cefadroxil 200 µM
[6] = pH 6.0, 0.03 µM nominal, no inhibitor
[7] = pH 6.0, 0.30 µM nominal + Cefadroxil 200 µM
[8] = pH 6.0, 0.30 µM nominal, no inhibitor

SMILES: [3H]C(c1ccc2ccccc2c1)C([3H])(NC(=O)C1CCC(CNC(=O)CN2CCN(CC(=O)[O-])CCN(CC(=O)[O-])CCN(CC(=O)[O-])CC2)CC1)C(=O)NCCCCC(NC(=O)NC(CCC(=O)O)C(=O)O)C(=O)O.[Lu+3] (stereo not drawn) [([α,β-^3H]Nal)Lu-PSMA-617]
- Uptake via transporter (PEPT2) (pH 5.0 and 6.0, absence and presence of cefadroxil): not taken up
- Accumulation in PEPT2 transporter expressing cells [1]: 0.16 ± 0.03 pmol/mg protein
- Accumulation in control cells [1]: 0.08 ± 0.00 pmol/mg protein
- Accumulation, active transport [1]: 0.08 ± 0.03 pmol/mg protein
- Fold accumulation [1]: 1.94
- Accumulation in PEPT2 transporter expressing cells [2]: 0.16 ± 0.03 pmol/mg protein
- Accumulation in control cells [2]: 0.12 ± 0.01 pmol/mg protein
- Accumulation, active transport [2]: 0.04 ± 0.03 pmol/mg protein
- Fold accumulation [2]: 1.34
- Accumulation in PEPT2 transporter expressing cells [3]: 1.58 ± 0.48 pmol/mg protein
- Accumulation in control cells [3]: 0.70 ± 0.12 pmol/mg protein
- Accumulation, active transport [3]: 0.88 ± 0.50 pmol/mg protein
- Fold accumulation [3]: 2.27
- Accumulation in PEPT2 transporter expressing cells [4]: 1.70 ± 0.50 pmol/mg protein
- Accumulation in control cells [4]: 0.87 ± 0.16 pmol/mg protein
- Accumulation, active transport [4]: 0.83 ± 0.53 pmol/mg protein
- Fold accumulation [4]: 1.95
- Max. transporter-specific fold accumulation, without inhibitor (pH 5.0): 1.95
- Max. transporter-specific fold accumulation, with inhibitor (pH 5.0): 2.27
- Accumulation in PEPT2 transporter expressing cells [5]: 0.17 ± 0.05 pmol/mg protein
- Accumulation in control cells [5]: 0.08 ± 0.01 pmol/mg protein
- Accumulation, active transport [5]: 0.09 ± 0.05 pmol/mg protein
- Fold accumulation [5]: 2.21
- Accumulation in PEPT2 transporter expressing cells [6]: 0.15 ± 0.05 pmol/mg protein
- Accumulation in control cells [6]: 0.10 ± 0.04 pmol/mg protein
- Accumulation, active transport [6]: 0.06 ± 0.06 pmol/mg protein
- Fold accumulation [6]: 1.57
- Accumulation in PEPT2 transporter expressing cells [7]: 1.57 ± 0.55 pmol/mg protein
- Accumulation in control cells [7]: 0.70 ± 0.16 pmol/mg protein
- Accumulation, active transport [7]: 0.88 ± 0.58 pmol/mg protein
- Fold accumulation [7]: 2.26
- Accumulation in PEPT2 transporter expressing cells [8]: 1.57 ± 0.45 pmol/mg protein
- Accumulation in control cells [8]: 0.87 ± 0.07 pmol/mg protein
- Accumulation, active transport [8]: 0.70 ± 0.45 pmol/mg protein
- Fold accumulation [8]: 1.81
- Max. transporter-specific fold accumulation, without inhibitor (pH 6.0): 1.81
- Max. transporter-specific fold accumulation, with inhibitor (pH 6.0): 2.26
